Here are results for 1 compound from patent publication US11596615B2, “Compositions and methods for treatment of insulin resistance” (Temple University—Of The Commonwealth System Of Higher …, priority 2016, dated 2023).

The nature of series [1]: Intravenous and oral pharmacokinetic study in mice. Format: in vivo. The settings on record: for VSS: dihydrochloride. How it is done: A pharmacokinetic study was conducted with mice (Charles river) (N=3). The animals had free access to water and standard laboratory chow under a controlled 12 hour light-dark cycle. After at least one week of an acclimation period, the mice were administrated a dose of 5 mg/kg of the title compound ((S))-2-amino-6-((3-aminopropyl)amino)hexanoic acid dihydrochloride) intravenously or 10 mg/kg orally. For both intravenous and oral administration, the compound was dissolved in saline. After intravenous administration, blood samples were collected at 10 min, 30 min, 1, 2, 4, 8 and 24 hours. For oral gavage, blood samples were collected at 15 min, 30 min 1, 2, 4, 8 and 24 hours. The blood samples were collected in polythene tubes with heparin sodium 100 unit/mL and centrifuged at 6000×g for 10 min to obtain plasma, which was stored at −20° C. until analysis.
The title compound concentration in mouse plasma was quantitated using an LC/MS/MS (API 4000, AB SCIEX). Briefly, 50 μl mouse plasma was added to 100 μl acetonitrile with internal standard (Diltiazem 10 ng/ml). The mixture was vortexed and centrifuged, and 5 μl supernatant was injected into LC/MS/MS for analysis. The separation was performed on a Waters C18 column (2.1×50 mm, […] particle size). The mobile phase consisted of 0.2% pentafluoropropionic acid in water:acetonitrile by gradient elution. A Sciex API 4000 mass spectroscopy system equipped with an electrospray source in the positive-ion multiple reaction monitoring (MRM) mode was used for detection. The MRM transitions monitored for the title compound and diltiazem were m/z 204.4/84.2 and m/z 415/178, respectively. The retention time is 12.5 min for (S)-2-amino-6-((3-aminopropyl)amino)hexanoic acid and 14 min for diltiazem. The quantitation ranged from 25 to 1000 ng/ml.

For series [2], the system named is mice fed high fat diet (HFD). Nature of the series: Blood glucose after glucose administration in overnourished mice (Example 10). The format is in vivo, C57BL/6J mice. The settings on record: 10 μg/mL in drinking water, FIG. 7. The source says: Twenty-four C57BL/6J mice 8-weeks old were fed with either regular CHOW diet or high fat diet (HFD, 60% of fat content). Eight animals received CHOW diet for one week, 8 animals had been fed already with HFD for two weeks and were continuously fed with the same diet for one more week (for a total of 3 weeks feeding) and 8 animals started HFD at the time of the animal selection (2 weeks feeding). Each group was divided in half, 4 animals received regular water and the other 4 received the (S)-2-amino-6-((3-aminopropyl)amino)hexanoic acid dihydrochloride (10 μg/mL) dissolved in the water. Animals were fasted for 5 hours, weighed, and blood glucose measured by tail clipping. In addition, glucose (1 mg/g of body weight) was administered intraperitoneally. Additional glucose levels were measured at 20, 40 and 80 minutes after glucose administration. Heavy glucose was also administered intraperitoneally to further measure glucose uptake from tissues. Glucose level was taken again at 140 minutes. Animals were euthanized under anesthesia (isoflurane), and blood, liver, fat and muscle were collected.

The nature of series [3]: Solubility in water, DMSO and PBS solubility assay. The format is physicochemical. On the procedure: The title compound was determined to be soluble in water or DMSO at a concentration of at least 10 mM.
The nature of series [4]: Predicted concentration-time profile for oral dosing in drinking water. Particulars: 10 mg/kg/day in drinking water, modeled as six oral doses over 12 hrs, plasma. On the procedure: The maximum predicted concentration is 0.82 μg/mL and the minimum concentration 0.1 μg/mL. The dose can be adjusted proportionally to achieve the desired concentrations.
A short description of series [5]: Adduct formation with 4-HNE by mass spectroscopy. Particulars: equimolar 10 μM APL and 4-HNE, 1 hr incubation at 37° C.; FIG. 6A, 6B; dihydrochloride. How it is done:
The experimental design was to incubate equimolar amounts (10 μM) of APL (dihydrochloride) with 4-HNE and measure adduct formation by mass spectroscopy before and after 1 hr incubation at 37° C.

The structures appear in SMILES notation. “Also recorded” adds a separate entry of the source. Structures can show the parent of a compound that is named as a salt. Where two headings read alike, the source gives them in different places.

Consider `NCCCNCCCC[C@H](N)C(=O)O` [APL, (S)-2-amino-6-((3-aminopropyl)amino)hexanoic acid dihydrochloride], for which the VSS in series [1] (IV, 5 mg/kg) is 0.4 L/kg; in series [1] (PO, 10 mg/kg, listed as (S)-2-amino-6-((3-aminopropyl)amino)hexanoic acid dihydrochloride), 2.12 L/kg; in series [1] (PO, 10 mg/kg, listed as (S)-2-amino-6-((3-aminopropyl)amino)hexanoic acid), 2.1 L/kg. In addition, the AUCtot in series [1] (IV, 5 mg/kg, plasma) is given as 4.72 μg*hr/m; in series [1] (PO, 10 mg/kg, plasma), 10.45 μg*hr/m. Further, in series [1] (PO, 10 mg/kg), the CL was 0.285 L/h. For the same compound, the Cmax in series [1] (mouse, IV, 5 mg/kg, plasma) stood at 8360 ng/mL; in series [1] (mouse, PO, 10 mg/kg, plasma) it was 1440 ng/mL. The compound further showed a clearance in series [1] (mouse, plasma, IV, 5 mg/kg) of 5.17 mL/min. Also, the half-life in series [1] (mouse, plasma, IV, 5 mg/kg) is 2.53 h; in series [1] (mouse, plasma, PO, 10 mg/kg) it was 3.25 h. The time to peak (Tmax) in series [1] (mouse, plasma, PO, 10 mg/kg) stood at 3.33 h. Besides, the Vd in series [1] (mouse, plasma, iv, 5 mg/kg, IV, 5 mg/kg, read-out: VSS) was found to be 0.414 L/kg. This compound also came in with a bioavailability in series [1] (mouse, plasma, oral, 10 mg/kg, PO 10 mg/kg vs IV 5 mg/kg) of approximately 100%. In addition, in series [2], the “glucose uptake impairment induced by overnutrition (blood glucose levels)” value is reported as “effective in counteracting glucose uptake impairment induced by overnutrition”. The solubility in series [3] (DMSO, organic solvent or mixture, read-out: solubility in DMSO) was not below 10 mM; in series [3] (phosphate buffered saline (PBS) without Ca or Mg, aqueous buffer, PBS pH 7.4 without Ca or Mg, 200 μM = maximum concentration tested, read-out: solubility in PBS), more than 0.2 mM; in series [3] (water, read-out: solubility in water) it was not below 10 mM. Besides, in series [4], the maximum predicted concentration was 0.82 µg/mL. The minimum predicted concentration in series [4] was 0.1 µg/mL. Also, the “adduct formation with 4-HNE” value in series [5] is given as “forms an adduct with 4-HNE after 1 hr of incubation; also recorded: forms an adduct with 4-NHE”.

The term Cmax denotes the peak of the concentration-time curve. As usually defined, the half-life is how long it takes for the measured level to halve. One may read the Tmax as the time from dosing to the highest level. By bioavailability is commonly meant the share of a dose that reaches the circulation, judged against a reference dose that is usually intravenous. Broadly, the solubility is the dissolved amount per volume that the medium holds.
